This note sets out measurements from patent US11965006B2, “Antimicrobial and anti-cancer therapy” (UNIVERSITY OF PITTSBURGH—OF THE COMMONWEALTH SYSTEM OF …, priority 2016, dated 2024).

Ends that are not written are not given here.

The MTD is the highest dose tested that stayed within the study's limit of toxicity.

The test system of data set [1] is Enterococcus faecium MDR clinical isolates. The class given is cell-based. As to conditions: Table 3.
Data set [2] relates to Klebsiella pneumonia MDR clinical isolates. The class given is cell-based. The following applies: Table 3.
The subject of data set [3] is Pseudomonas aeruginosa MDR clinical isolates. Type of data set: cell-based. As to conditions: Table 3.
Data set [4] relates to methicillin-resistant Staphylococcus aureus (MRSA) clinical isolates. The class given is cell-based. The following applies: Table 3.
A short description of data set [5]: In vivo toxicity / maximum tolerated dose. Also on record: species or system Mice (strain: Swiss Webster). Here is the method:
The modified AMPs show a lower toxicity and higher maximum tolerated dosage (MTD) than WLBU2 (SEQ ID No. 26). The MTD for WLBU2 (SEQ ID No. 26) is 15 mg/kg, for Colistin is 10 mg/kg, and SEQ ID No. 15 is 30 mg/kg (FIG. 14A).
Mice (strain: Swiss Webster) were injected with SEQ ID No. 15 peptides intravenously (i.v.) or intraperitoneally (i.p.) at the concentrations indicated. […] Thus, the estimated maximum tolerated dose (MTD) is around 40-50 mpk (i.v.). On a similar setting of testing other AMPS, the MTD for WLBU2 is 15 mpk (i.v.) and 10 mpk (i.v.) for colistin.

Data set [6] relates to Hep2 epithelial cells. Briefly: Hep2 cytopathology in RSV plaque assay. Type of data set: cell-based. As to conditions: 32 μM. Here is the method: Using a standard plaque assay, RSV replication was quantified in permissive Hep2 epithelial cells in the presence or absence of various AMPs. RSV plaque assays were used to determine the minimum dose required to induce Hep2 cytopathology and maximum anti-viral effects. Experimental controls included Hep2 cells+/−RSV and Hep-2 cells with AMP only.
Hep2 control cells without the AMP were also plated. Both plates were infected with the same dilution of A2 RSV virus. There is extensive sloughing of cells treated with the peptide (top plate) as compared to cells which were not (bottom plate), FIG. 18.

Data set [7] relates to primary Human bronchial epithelial (HBE) cells. Briefly: Toxicity to primary cells, tetrazolium-based viability assay. The class given is cell-based. As to conditions: treated 2 h. Here is the method:
Anti-cancer activity of SEQ ID No. 26 and its D-amino acid modified enantiomer, SEQ ID. No. 34. SEQ ID. No. 34 was compared to SEQ ID No. 26 for selective anti-cancer activities using cancer cell lines of the respiratory system. See FIG. 22A for H460 (large cell lung cancer) and Calu-1 (non-small cell lung cancer) and FIG. 22B for primary Human bronchial epithelial (HBE) cells. The cells were grown to 80% confluence and then treated with each AMP for 2 h. Percent viability was examined using a tetrazolium-based assay assessing the mitochondrial integrity. […] No. 34; however SEQ ID. […] No. 34. Therefore, SEQ ID. […] No. 26.

Regarding “RRWVRRVRRVWRRVVRVVRRWVRR [SEQ ID No. 26, reference compound]”, the “MIC Ef 25153” value in data set [1] (isolate Ef 25153) is less than 4 µM. For the same sequence, the “MIC Ef 26125” value in data set [1] (isolate Ef 26125) is less than 4 µM. The “MIC A5” value in data set [2] (isolate A5) was more than 8 µM. Further, in data set [2] (isolate C3), the “MIC C3” value was found to be 16 µM. In addition, the “MIC C5” value in data set [2] (isolate C5) stood at 16 µM. Moreover, the “MIC D7” value in data set [2] (isolate D7) was less than 4 µM. Further, the “MIC E6” value in data set [2] (isolate E6) was less than 4 µM. Also, the “MIC PA 82-8” value in data set [3] (isolate PA 82-8) is 4 µM. Besides, the “MIC PA 129-5” value in data set [3] (isolate PA 129-5) was less than 4 µM. In addition, the “MIC MRSA 150-10” value in data set [4] (isolate 150-10) was determined as 8 µM. For the same sequence, the “MIC MRSA USA300” value in data set [4] (isolate USA300) is less than 4 µM. Moreover, the MTD in data set [5] (Swiss Webster, mouse, in vivo, FIG. 14A, read-out: maximum tolerated dosage (MTD)) was determined as 15 mg/kg. Besides, the “maximum tolerated dose (MTD)” value in data set [5] (i.v., Swiss Webster mice) was 15 mpk. Further, the “cytopathology in Hep2 cells” value in data set [6] was “caused cytopathology”. In addition, in data set [7], the “toxicity to primary HBE cells” value is reported as “toxic to primary HBE cells”.
